Reference: PubChem BioAssay (NCI)
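Results reflect a 48-hour exposure of cells in 96-well plates to compound at five concentrations. TGI: total growth inhibition.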

Assays:
Experiment in all cases: NCI-60 cell line screen, 48 h
[1] = system: MALME-3M melanoma
[2] = system: SW-620 colon
[3] = system: K-562 leukemia
[4] = system: NCI-H23 lung
[5] = system: A498 renal
[6] = system: EKVX NSCLC
[7] = system: SK-OV-3 ovarian
[8] = system: HL-60(TB) leukemia
[9] = system: A549 NSCLC
[10] = system: OVCAR-3 ovarian
[11] = system: SF-295 CNS
[12] = system: ACHN renal
[13] = system: UO-31 renal
[14] = system: DU-145 prostate
[15] = system: OVCAR-4 ovarian
[16] = system: HS 578T breast
[17] = system: BT-549 breast

`O=C(O)c1ccc(C2COc3ccc(Cl)cc3C2)cc1` (stereo not given) gave a TGI [1] greater than 100 µM, a TGI [2] greater than 100 µM and a TGI [3] greater than 100 µM. The TGI [4] was greater than 100 µM, the TGI [5] was greater than 100 µM and the TGI [6] was greater than 100 µM. The TGI [7] was greater than 100 µM, the TGI [8] was greater than 100 µM and the TGI [9] was greater than 100 µM. It also gave a TGI [10] greater than 100 µM, a TGI [11] greater than 100 µM and a TGI [12] greater than 100 µM. For the same compound, the TGI [13] was greater than 100 µM.
In the case of `NC(N)=NCCCC(NC(=O)c1cccc2c(=O)c3ccccc3[nH]c12)C(=O)O` (stereo not given), the TGI [1] is reported as greater than 100 µM, the TGI [2] is reported as greater than 100 µM and the TGI [14] is reported as greater than 100 µM. For the same compound, the TGI [3] was greater than 100 µM, the TGI [15] was greater than 100 µM and the TGI [16] was greater than 100 µM. The TGI [4] was greater than 100 µM, the TGI [5] was greater than 100 µM and the TGI [6] was greater than 100 µM. It also gave a TGI [7] greater than 100 µM, a TGI [8] greater than 100 µM and a TGI [9] greater than 100 µM. It also gave a TGI [10] greater than 100 µM, a TGI [11] greater than 100 µM and a TGI [12] greater than 100 µM. It also gave a TGI [13] greater than 100 µM.
`C/C=C1\CN2CCc3c([nH]c4ccccc34)C2CC1C(=O)OC` (stereo not given) was tested, and the TGI [1] was greater than 322 µM, the TGI [2] was greater than 322 µM and the TGI [3] was greater than 322 µM. For the same compound, the TGI [4] was greater than 322 µM, the TGI [6] was greater than 322 µM and the TGI [7] was greater than 322 µM. It also gave a TGI [8] greater than 32.2 µM, a TGI [9] greater than 322 µM and a TGI [10] greater than 322 µM. The TGI [11] was greater than 322 µM and the TGI [12] was greater than 322 µM.
Work on `O=c1[nH]cc(COCCCO)c(=O)[nH]1` yielded a TGI [1] greater than 100 µM, a TGI [2] greater than 100 µM and a TGI [3] greater than 100 µM. It also gave a TGI [15] greater than 100 µM, a TGI [4] greater than 100 µM and a TGI [5] greater than 100 µM. The TGI [6] was greater than 100 µM, the TGI [7] was greater than 100 µM and the TGI [8] was greater than 100 µM. It also gave a TGI [9] greater than 100 µM, a TGI [10] greater than 100 µM and a TGI [11] greater than 100 µM. The TGI [12] was greater than 100 µM and the TGI [13] was greater than 100 µM.
With `CCOC(=O)/C(C=Nc1c(C)n(C)n(-c2ccccc2)c1=O)=C(/C)O` the TGI [1] was greater than 100 µM, the TGI [2] was greater than 100 µM and the TGI [14] was greater than 100 µM. The TGI [3] was greater than 100 µM, the TGI [17] was greater than 100 µM and the TGI [15] was greater than 100 µM. For the same compound, the TGI [4] was greater than 100 µM, the TGI [5] was greater than 100 µM and the TGI [6] was greater than 100 µM. It also gave a TGI [7] greater than 100 µM, a TGI [8] greater than 100 µM and a TGI [9] greater than 100 µM. For the same compound, the TGI [10] was greater than 100 µM, the TGI [11] was greater than 100 µM and the TGI [12] was greater than 100 µM. The TGI [13] was greater than 100 µM.
Work on `CCn1c2ccccc2c2ccc3c(c21)C(=O)C=CC3=O` yielded a TGI [1] of 22 µM, a TGI [3] of 9.19 µM and a TGI [15] of 14.2 µM. For the same compound, the TGI [4] was 51.1 µM, the TGI [6] was 30 µM and the TGI [7] was 34 µM. For the same compound, the TGI [8] was 12.9 µM, the TGI [9] was greater than 100 µM and the TGI [10] was 26.6 µM. The TGI [11] was 44.5 µM, the TGI [12] was 30.2 µM and the TGI [13] was 21.6 µM.
Work on `C[N+](C)(C)CCc1ccccc1` yielded a TGI [1] greater than 100 µM, a TGI [2] greater than 100 µM and a TGI [3] greater than 100 µM. It also gave a TGI [15] greater than 100 µM, a TGI [4] greater than 100 µM and a TGI [5] greater than 100 µM. For the same compound, the TGI [6] was greater than 100 µM, the TGI [7] was greater than 100 µM and the TGI [8] was greater than 100 µM. The TGI [9] was greater than 100 µM, the TGI [10] was greater than 100 µM and the TGI [11] was greater than 100 µM. The TGI [12] was greater than 100 µM and the TGI [13] was greater than 100 µM.
Work on `CSc1nc2c(c(=O)[nH]1)N=C(c1ccc([N+](=O)[O-])cc1)CC(c1ccccc1)N2` (stereo not given) yielded a TGI [1] greater than 100 µM, a TGI [2] of 91.7 µM and a TGI [14] greater than 100 µM. It also gave a TGI [3] greater than 100 µM, a TGI [17] greater than 100 µM and a TGI [15] greater than 100 µM. For the same compound, the TGI [4] was greater than 100 µM, the TGI [5] was greater than 100 µM and the TGI [6] was greater than 100 µM. It also gave a TGI [8] of 39.7 µM, a TGI [9] greater than 100 µM and a TGI [10] greater than 100 µM. The TGI [11] was greater than 100 µM, the TGI [12] was greater than 100 µM and the TGI [13] was greater than 100 µM.
Work on `COc1ccc(CC2(O)C3CC4CCC2C4C3)cc1` (stereo not given) yielded a TGI [1] greater than 100 µM, a TGI [2] greater than 100 µM and a TGI [3] greater than 100 µM. For the same compound, the TGI [17] was greater than 100 µM, the TGI [15] was greater than 100 µM and the TGI [16] was greater than 100 µM. It also gave a TGI [4] greater than 100 µM, a TGI [6] greater than 100 µM and a TGI [7] greater than 100 µM. It also gave a TGI [8] greater than 100 µM, a TGI [9] greater than 100 µM and a TGI [10] greater than 100 µM. The TGI [11] was greater than 100 µM, the TGI [12] was greater than 100 µM and the TGI [13] was greater than 100 µM.
For `COc1cccc(NC(=O)CSc2nnc(-c3ccc(NC(C)=O)cc3)o2)c1`, the TGI [1] was greater than 100 µM, the TGI [2] was greater than 100 µM and the TGI [3] was greater than 100 µM. For the same compound, the TGI [15] was greater than 100 µM, the TGI [4] was greater than 100 µM and the TGI [7] was greater than 100 µM. The TGI [8] was greater than 100 µM, the TGI [9] was greater than 100 µM and the TGI [10] was greater than 100 µM. The TGI [11] was greater than 100 µM, the TGI [12] was greater than 100 µM and the TGI [13] was greater than 100 µM.
In the case of `CCCCCCCOc1ccc(/C=C\c2cc[n+](CCCCCCCC[n+]3ccc(/C=C\c4ccc(OCCCCCCC)cc4)cc3)cc2)cc1`, the TGI [1] is reported as 33.7 µM, the TGI [15] is reported as greater than 100 µM and the TGI [4] is reported as greater than 100 µM. The TGI [5] was 80.8 µM, the TGI [6] was greater than 100 µM and the TGI [7] was 57.8 µM. It also gave a TGI [8] greater than 100 µM, a TGI [9] of 41.5 µM and a TGI [10] of 33.1 µM. It also gave a TGI [11] greater than 100 µM, a TGI [12] greater than 100 µM and a TGI [13] of 41.2 µM.
In the case of `c1ccc2c(c1)C1CCCCCC21N1CCOCC1` (stereo not given), the TGI [2] is reported as greater than 100 µM, the TGI [3] is reported as greater than 100 µM and the TGI [15] is reported as greater than 100 µM. The TGI [4] was greater than 100 µM, the TGI [5] was greater than 100 µM and the TGI [7] was greater than 100 µM. For the same compound, the TGI [8] was greater than 100 µM, the TGI [9] was greater than 100 µM and the TGI [10] was greater than 100 µM. The TGI [11] was greater than 100 µM, the TGI [12] was greater than 100 µM and the TGI [13] was greater than 100 µM.
Work on `O=C(CSc1nnc(Cc2ccccc2)o1)Nc1ccccc1` yielded a TGI [1] greater than 100 µM, a TGI [3] greater than 100 µM and a TGI [15] greater than 100 µM. The TGI [4] was greater than 100 µM, the TGI [5] was greater than 100 µM and the TGI [7] was greater than 100 µM. The TGI [8] was greater than 100 µM, the TGI [9] was greater than 100 µM and the TGI [10] was greater than 100 µM. For the same compound, the TGI [11] was greater than 100 µM, the TGI [12] was greater than 100 µM and the TGI [13] was greater than 100 µM.
For `N#CC1C(=O)NC23CCCCC2C1c1ccccc1O3` (stereo not given), the TGI [1] was greater than 100 µM, the TGI [2] was greater than 100 µM and the TGI [14] was greater than 100 µM. It also gave a TGI [3] greater than 100 µM, a TGI [17] greater than 100 µM and a TGI [15] greater than 100 µM. The TGI [4] was greater than 100 µM, the TGI [5] was greater than 100 µM and the TGI [6] was greater than 100 µM. For the same compound, the TGI [7] was greater than 100 µM, the TGI [8] was greater than 100 µM and the TGI [9] was greater than 100 µM. It also gave a TGI [10] greater than 100 µM, a TGI [11] greater than 100 µM and a TGI [12] greater than 100 µM. For the same compound, the TGI [13] was greater than 100 µM.
